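Compound exposure: 48 hours, 5 concentrations, 96-well plates. GI50 marks 50% less growth. TGI is the concentration that stops growth completely.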
Key:
Assay in all cases: NCI anticancer screen, dose series, 48 h
SF-295 CNS = tested on: SF-295 CNS
OVCAR-3 ovarian = tested on: OVCAR-3 ovarian
A498 renal = tested on: A498 renal
SK-MEL-28 melanoma = tested on: SK-MEL-28 melanoma
A549 NSCLC = tested on: A549 NSCLC
NCI-H460 lung = tested on: NCI-H460 lung
HL-60(TB) leukemia = tested on: HL-60(TB) leukemia
HCT-116 colon = tested on: HCT-116 colon
PC-3 prostate = tested on: PC-3 prostate
SR leukemia = tested on: SR leukemia

Row | SMILES | GI50 (SF-295 CNS) [µM] | TGI (SF-295 CNS) [µM] | GI50 (OVCAR-3 ovarian) [µM] | TGI (OVCAR-3 ovarian) [µM] | GI50 (A498 renal) [µM] | TGI (A498 renal) [µM] | GI50 (SK-MEL-28 melanoma) [µM] | TGI (SK-MEL-28 melanoma) [µM] | GI50 (A549 NSCLC) [µM] | TGI (A549 NSCLC) [µM] | GI50 (NCI-H460 lung) [µM] | TGI (NCI-H460 lung) [µM] | GI50 (HL-60(TB) leukemia) [µM] | TGI (HL-60(TB) leukemia) [µM] | GI50 (HCT-116 colon) [µM] | TGI (HCT-116 colon) [µM] | GI50 (PC-3 prostate) [µM] | TGI (PC-3 prostate) [µM] | GI50 (SR leukemia) [µM] | TGI (SR leukemia) [µM]
1 | COc1ccc2[nH]c(C(=O)OCc3ccc4cccc(O)c4n3)cc2c1 | 4.98 | 18.1 | 1.11 | 2.41 | 2.65 | 5.57 | 1.61 | 3 | 1.81 | 3.92 | 2.24 | 5.41 | 1.18 | 3.4 | 0.39 | 1.85 | 0.247 | 1.32 | 0.251 | 1.25
2 | Nc1ccc(-c2ccc3ncc4ccc(=O)n(-c5cccc(C(F)(F)F)c5)c4c3c2)cn1 | < 0.01 | 1.19 | < 0.01 | 3.32 | < 0.01 | < 0.01 | < 0.01 | 11.5 | < 0.01 | 2.6 | < 0.01 | 3.18 | 0.0408 | 8.66 | 0.0135 | 1.41 | < 0.01 | 5.38 | < 0.01 | 0.56
3 | COc1ccc2c(c1)O/C(=C\c1cccc(OCC(=O)Nc3nc(C)c(C)s3)c1)C2=O | 28.9 | > 100 | 0.448 | 1.05 | 7.82 | > 68.4 | 20.9 | > 100 | 2.18 | 6.43 | 11.6 | > 100 | 1.48 | 3.16 | 5.53 | > 53.3 | 0.821 | – | 0.537 | 1.37
4 | CCN(CC)c1nc(NC2CCCCC2)c2nc(N(CC)CC)nc(NC3CCCCC3)c2n1 | – | > 100 | – | > 100 | – | > 100 | – | > 100 | – | > 100 | – | > 100 | – | > 100 | – | > 100 | – | > 100 | – | > 100
5 | NCCOc1ncccc1/C=C1\c2ccccc2-c2ccc([N+](=O)[O-])cc21 | 0.0246 | 0.161 | 0.181 | 0.449 | 0.158 | 0.578 | 0.241 | 1.06 | < 0.01 | 0.204 | < 0.0104 | 0.154 | 0.0165 | 0.121 | 0.0455 | 0.237 | 0.177 | 1.11 | < 0.01 | 1.1
6 | CN1CCN(CCCOc2cccc3nc(Nc4ccc(F)c(F)c4)ccc23)CC1 | 4.64 | 9.3 | 4.58 | 9.51 | 5.65 | 11.6 | 1.08 | 3.63 | 3.5 | 8.15 | 2.37 | 8.9 | 5.18 | 11 | 3.8 | 7.87 | 3.83 | 8.43 | 0.87 | 4.07
7 | Cn1cncc1-c1c(F)cncc1NC(=O)c1c(N)nn2cc(F)cnc12 | 0.625 | 6.61 | 0.407 | 2.29 | 0.526 | 8.83 | 6.52 | 86.8 | 2.27 | > 100 | 1.27 | > 100 | 0.272 | 0.717 | 2.07 | 16.3 | 3.41 | > 100 | 0.206 | 2.54
8 | CCOC(=O)C#Cc1c(C(=O)OCC)nnn1[C@@H]1O[C@H](CO)[C@H]2OC3(CCCCC3)O[C@H]21 | 20.9 | 45.3 | 1.7 | 3.21 | 17.6 | 31.8 | 2.06 | 4.51 | 19.9 | 35.8 | 13.4 | 28.9 | 1.87 | 5.88 | 1.92 | 3.48 | 13.5 | 26.8 | 1.63 | 4.64
9 | OC(COc1ccccc1)CN1CCCCC1 (configuration not stated) | – | > 100 | – | > 100 | – | > 100 | – | > 100 | – | > 100 | – | > 100 | – | > 100 | – | > 100 | – | > 100 | – | > 100
10 | O=C(Oc1ccccc1)C(Br)C(Br)c1ccccc1 (configuration not stated) | 4.88 | 18.3 | 1.72 | 3.14 | 10.5 | 22.4 | 2.64 | 7.11 | 18 | 38.5 | 14.5 | 29.8 | 3.13 | 15.9 | 1.8 | 3.54 | 14.9 | 30.1 | 1.93 | 5.5
11 | CCc1nn2ncccc2c1-c1ccnc(NC2CC2)n1 | > 25 | > 25 | > 25 | > 25 | 9.73 | > 25 | > 25 | > 25 | > 25 | > 25 | > 25 | > 25 | > 25 | > 25 | > 25 | > 25 | > 25 | > 25 | > 25 | > 25
12 | COc1cc(Nc2ncnc(Nc3ccc4c(n3)NC(=O)C(C)(C)O4)n2)cc(OC)c1OC | 0.754 | > 100 | 3.46 | > 100 | 0.031 | 0.29 | > 23.9 | > 100 | 1.25 | > 100 | 3.2 | > 100 | 4.52 | > 100 | 3.95 | > 100 | 1.46 | > 100 | 2.24 | > 100
13 | Cc1c(C)c2c(c(C)c1OCC(=O)O)CC[C@@](C)(CCC[C@@H](C)CCC[C@@H](C)CCCC(C)C)O2 | 60.1 | 146 | 77.3 | 154 | 94.9 | 167 | 62.6 | 129 | 24.4 | 107 | 55.3 | 168 | 77.2 | 156 | 33.2 | 108 | 34.9 | 106 | 50.4 | 500
14 | COc1cccc(NC(=O)c2sc3nc4c(cc3c2N)C(O)CCC4)c1 (configuration not stated) | 0.157 | > 92.2 | 0.106 | 0.515 | 0.112 | 4 | 0.787 | > 100 | 0.287 | > 100 | 0.324 | > 100 | 0.0534 | 0.534 | 0.117 | > 100 | 0.23 | > 100 | 0.0432 | > 100
15 | CC1=C(C#N)C(/C=C(\Cl)c2ccc(F)cc2)C(C#N)=C(C)N1 | 53.7 | > 100 | > 100 | > 100 | > 100 | > 100 | > 100 | > 100 | > 100 | > 100 | > 100 | > 100 | 74 | > 100 | > 100 | > 100 | > 100 | > 100 | > 100 | > 100
16 | COc1ccc(-c2n[nH]nc2-c2cc(OC)c3c(c2)OCO3)cc1 | < 0.01 | 0.429 | 0.0101 | – | < 0.01 | 0.0693 | 0.0444 | > 89.7 | 0.0239 | > 100 | 0.0143 | 13.2 | 0.0252 | 0.336 | 0.017 | – | 0.0384 | > 100 | < 0.01 | 17.5
17 | NC(CSC(c1ccccc1)(c1ccccc1)c1ccc(F)cc1)C(=O)O (configuration not stated) | 0.346 | 13 | 0.355 | 4.38 | 0.344 | 33.8 | 6.04 | > 100 | 0.35 | > 31.7 | 0.336 | 14.9 | 0.268 | 2.47 | 0.381 | > 34.6 | 0.4 | > 35.9 | 0.253 | 2.93
18 | CCc1nc2cc(/C=C/C(=O)NO)ccc2c(=O)n1CCc1ccc(OC)cc1 | 2.16 | 5.39 | 2.03 | 7.19 | 1.17 | 3.39 | 3.31 | 15.1 | 3.56 | 15.1 | 1.83 | 10.1 | 3.47 | > 100 | 1.59 | 9.51 | 3.32 | > 100 | 1.94 | > 100
